Measured values: patent US20250352520A1, “USE OF DEXPRAMIPEXOLE FOR THE TREATMENT OF EOSINOPHILIC COPD” (Areteia Therapeutics, Inc., priority 2024, published 2025)
Like-named read-outs stand apart in the source and are kept apart here.

How the values were obtained:
[1] = Week 16
Method: Participants performed post-BD spirometry at specific visits as noted in the SOA.
After completing the pre-BD spirometry, participants inhaled four puffs of albuterol/salbutamol (site sourced) metered dose inhaler (approximately 100 μg albuterol/salbutamol base per actuation), with each actuation 1 minute apart. Post-BD spirometry was assessed within 15 to 30 minutes after inhalation of albuterol/salbutamol.

[2] = 150 mg BID; participants with ALS and EADs; cited from earlier work
[3] = Phase III, participants with ALS; cited from earlier work
[4] = <50% AEC reduction at Week 16 (N = 4), 150 mg BID
[5] = >=50% AEC reduction at Week 16 (N = 3), 150 mg BID

CCCN[C@@H]1CCc2nc(N)sc2C1 [Dexpramipexole, (6R)-2-amino-4,5,6,7-tetrahydro-6-(propylamino)benzothiazole]
Post bronchodilator Peak Flow, Observed, Min [1, 4]: 146 L/min | Post bronchodilator Peak Flow, Observed, Q1 [1, 4]: 227 L/min | Post bronchodilator Peak Flow, Observed, Q3 [1, 4]: 425 L/min | Post-BD FEV1 % change from baseline, Max ([1]; >=50% AEC reduction at Week 16): 57% | Post-BD FEV1 % change from baseline, Mean ± SD ([1]; >=50% AEC reduction at Week 16): 16.6 ± 35.02% | Post-BD FEV1 % change from baseline, Median ([1]; >=50% AEC reduction at Week 16): −1.1% | Post-BD FEV1 % change from baseline, Min ([1]; >=50% AEC reduction at Week 16): −6% | Post-BD FEV1 % change from baseline, Q1 ([1]; >=50% AEC reduction at Week 16): −6% | Post-BD FEV1 % change from baseline, Q3 ([1]; >=50% AEC reduction at Week 16): 57% | Post-BD FEV1 Observed, Max ([1]; >=50% AEC reduction at Week 16): 2150 mL | Post-BD FEV1 Observed, Mean ± SD ([1]; >=50% AEC reduction at Week 16): 1593.3 ± 616.95 mL | Post-BD FEV1 Observed, Median ([1]; >=50% AEC reduction at Week 16): 1700.0 mL | Post-BD FEV1 Observed, Min ([1]; >=50% AEC reduction at Week 16): 930 mL | Post-BD FEV1 Observed, Q1 ([1]; >=50% AEC reduction at Week 16): 930 mL | Post-BD FEV1 Observed, Q3 ([1]; >=50% AEC reduction at Week 16): 2150 mL | Post-BD FEV1 change from baseline, Max ([1]; >=50% AEC reduction at Week 16): 780 mL | Post-BD FEV1 change from baseline, Mean ± SD ([1]; >=50% AEC reduction at Week 16): 220.0 ± 487.54 mL | Post-BD FEV1 change from baseline, Median ([1]; >=50% AEC reduction at Week 16): -10.0 mL | Post-BD FEV1 change from baseline, Min ([1]; >=50% AEC reduction at Week 16): -110 mL | Post-BD FEV1 change from baseline, Q1 ([1]; >=50% AEC reduction at Week 16): -110 mL | Post-BD FEV1 change from baseline, Q3 ([1]; >=50% AEC reduction at Week 16): 780 mL | Post bronchodilator Forced Expiratory Flow 25-75% (FEF25-75), % CFB (Percent change from baseline), Max [1, 5]: 81% | Post bronchodilator Forced Expiratory Flow 25-75% (FEF25-75), % CFB (Percent change from baseline), Mean ± SD [1, 5]: 26.7 ± 49.08% | Post bronchodilator Forced Expiratory Flow 25-75% (FEF25-75), % CFB (Percent change from baseline), Median [1, 5]: 12.5% | Post bronchodilator Forced Expiratory Flow 25-75% (FEF25-75), % CFB (Percent change from baseline), Min [1, 5]: −14% | Post bronchodilator Forced Expiratory Flow 25-75% (FEF25-75), % CFB (Percent change from baseline), Q1 [1, 5]: −14% | Post bronchodilator Forced Expiratory Flow 25-75% (FEF25-75), % CFB (Percent change from baseline), Q3 [1, 5]: 81% | Post bronchodilator Forced Expiratory Flow 25-75% (FEF25-75), CFB (Change from baseline), Max [1, 5]: 520 mL/s | Post bronchodilator Forced Expiratory Flow 25-75% (FEF25-75), CFB (Change from baseline), Mean ± SD [1, 5]: 130.0 ± 350.86 mL/s | Post bronchodilator Forced Expiratory Flow 25-75% (FEF25-75), CFB (Change from baseline), Median [1, 5]: 30.0 mL/s | Post bronchodilator Forced Expiratory Flow 25-75% (FEF25-75), CFB (Change from baseline), Min [1, 5]: -160 mL/s | Post bronchodilator Forced Expiratory Flow 25-75% (FEF25-75), CFB (Change from baseline), Q1 [1, 5]: -160 mL/s | Post bronchodilator Forced Expiratory Flow 25-75% (FEF25-75), CFB (Change from baseline), Q3 [1, 5]: 520 mL/s | Post bronchodilator Forced Expiratory Flow 25-75% (FEF25-75), Observed, Max [1, 5]: 1160 mL/s | Post bronchodilator Forced Expiratory Flow 25-75% (FEF25-75), Observed, Mean ± SD [1, 5]: 810.0 ± 474.45 mL/s | Post bronchodilator Forced Expiratory Flow 25-75% (FEF25-75), Observed, Median [1, 5]: 1000.0 mL/s | Post bronchodilator Forced Expiratory Flow 25-75% (FEF25-75), Observed, Min [1, 5]: 270 mL/s | Post bronchodilator Forced Expiratory Flow 25-75% (FEF25-75), Observed, Q1 [1, 5]: 270 mL/s | Post bronchodilator Forced Expiratory Flow 25-75% (FEF25-75), Observed, Q3 [1, 5]: 1160 mL/s | Post bronchodilator Forced Vital Capacity (FVC), % CFB (Percent change from baseline), Max [1, 5]: 36% | Post bronchodilator Forced Vital Capacity (FVC), % CFB (Percent change from baseline), Mean ± SD [1, 5]: 9.2 ± 23.24% | Post bronchodilator Forced Vital Capacity (FVC), % CFB (Percent change from baseline), Median [1, 5]: −2.4% | Post bronchodilator Forced Vital Capacity (FVC), % CFB (Percent change from baseline), Min [1, 5]: −6% | Post bronchodilator Forced Vital Capacity (FVC), % CFB (Percent change from baseline), Q1 [1, 5]: −6% | Post bronchodilator Forced Vital Capacity (FVC), % CFB (Percent change from baseline), Q3 [1, 5]: 36% | Post bronchodilator Forced Vital Capacity (FVC), CFB (Change from baseline), Max [1, 5]: 900 mL | Post bronchodilator Forced Vital Capacity (FVC), CFB (Change from baseline), Mean ± SD [1, 5]: 226.7 ± 585.26 mL | Post bronchodilator Forced Vital Capacity (FVC), CFB (Change from baseline), Median [1, 5]: -60.0 mL | Post bronchodilator Forced Vital Capacity (FVC), CFB (Change from baseline), Min [1, 5]: -160 mL | Post bronchodilator Forced Vital Capacity (FVC), CFB (Change from baseline), Q1 [1, 5]: -160 mL | Post bronchodilator Forced Vital Capacity (FVC), CFB (Change from baseline), Q3 [1, 5]: 900 mL | Post bronchodilator Forced Vital Capacity (FVC), Observed, Max [1, 5]: 3400 mL | Post bronchodilator Forced Vital Capacity (FVC), Observed, Mean ± SD [1, 5]: 2796.7 ± 527.86 mL | Post bronchodilator Forced Vital Capacity (FVC), Observed, Median [1, 5]: 2570.0 mL | Post bronchodilator Forced Vital Capacity (FVC), Observed, Min [1, 5]: 2420 mL | Post bronchodilator Forced Vital Capacity (FVC), Observed, Q1 [1, 5]: 2420 mL | Post bronchodilator Forced Vital Capacity (FVC), Observed, Q3 [1, 5]: 3400 mL | Post bronchodilator Peak Flow, % CFB (Percent change from baseline), Max [1, 5]: 103% | Post bronchodilator Peak Flow, % CFB (Percent change from baseline), Mean ± SD [1, 5]: 40.2 ± 55.44% | Post bronchodilator Peak Flow, % CFB (Percent change from baseline), Median [1, 5]: 21.5% | Post bronchodilator Peak Flow, % CFB (Percent change from baseline), Min [1, 5]: −3% | Post bronchodilator Peak Flow, % CFB (Percent change from baseline), Q1 [1, 5]: −3% | Post bronchodilator Peak Flow, % CFB (Percent change from baseline), Q3 [1, 5]: 103% | Post bronchodilator Peak Flow, CFB (Change from baseline), Max [1, 5]: 161 L/min | Post bronchodilator Peak Flow, CFB (Change from baseline), Mean ± SD [1, 5]: 64.3 ± 86.56 L/min | Post bronchodilator Peak Flow, CFB (Change from baseline), Median [1, 5]: 38.0 L/min | Post bronchodilator Peak Flow, CFB (Change from baseline), Min [1, 5]: -6 L/min | Post bronchodilator Peak Flow, CFB (Change from baseline), Q1 [1, 5]: -6 L/min | Post bronchodilator Peak Flow, CFB (Change from baseline), Q3 [1, 5]: 161 L/min | Post bronchodilator Peak Flow, Observed, Max [1, 5]: 318 L/min | Post bronchodilator Peak Flow, Observed, Mean ± SD [1, 5]: 233.0 ± 77.58 L/min | Post bronchodilator Peak Flow, Observed, Median [1, 5]: 215.0 L/min | Post bronchodilator Peak Flow, Observed, Min [1, 5]: 166 L/min | Post bronchodilator Peak Flow, Observed, Q1 [1, 5]: 166 L/min | Post bronchodilator Peak Flow, Observed, Q3 [1, 5]: 318 L/min | safety profile [2]: favorable safety profile | absolute eosinophil count (AEC) [3]: substantial, durable, and targeted reduction | efficacy in ALS [3]: failed to demonstrate efficacy
